# Reference: ChEMBL document CHEMBL6121008, “New series of 3-pyridyl-1,3-thiazoles: In vitro and in vivo anti-Trypanosomatidae profile, in vitro and in silico mechanism of action approach” (Eur J Med Chem, 2025)
# Calls of active or inactive are those of the source. The rule behind the calls is not given here.
# Legend:
# RAW264.7 [1] = experiment: Immunomodulatory activity in mouse RAW264.7 cells assessed as increase in IL-6 production at 1 to 4 times IC50 incubated for 24 to 144 hrs by flow cytometric analysis; assay type: functional, cell-based; settings: time 24-144 hrs
# Trypanosoma cruzi [2] = experiment: Antiparasitic activity against trypomastigote form of Trypanosoma cruzi Tulahuen expressing Escherichia coli beta-galactosidase infected in mouse L929 cells assessed as reduction in parasitic growth using CPRG as substrate pretreated with compound for 96 hrs followed by substrate addition and measured after 16 to 20 hrs by Spectrophotometric analysis; assay type: functional, organism-based
# [3] = Toxicity in male Swiss mouse infected with Trypanosoma cruzi Y trypomastigotes assessed as mortality at 100 mg/kg/day, po pre-infected with parasite followed by compound addition and measured after 5 to 9 days relative to control; assay type: organism-based; settings: in vivo, time 5-9 day; for Activity: po, 100 mg/kg
# [4] = Cytotoxicity against mouse L929 cells assessed as inhibition of cell viability incubated for 96 hrs by MTT assay; assay type: toxicity, cell-based
# RAW264.7 [5] = experiment: Immunomodulatory activity in mouse RAW264.7 cells assessed as decrease in IL-10 production at 1 to 4 times IC50 incubated for 24 to 144 hrs by flow cytometric analysis; assay type: functional, cell-based; settings: time 24-144 hrs
# Trypanosoma cruzi [6] = experiment: Antiparasitic activity against amastigote form of Trypanosoma cruzi Tulahuen expressing Escherichia coli beta-galactosidase infected in mouse L929 cells assessed as reduction in parasitic growth using CPRG as substrate pretreated with compound for 96 hrs followed by substrate addition and measured after 16 to 20 hrs by Spectrophotometric analysis; assay type: functional, organism-based
# Trypanosoma cruzi [7] = experiment: Antiparasitic activity against Trypanosoma cruzi Y trypomastigotes infected in male Swiss mouse assessed as reduction in parasitemia at 100 mg/kg/day, po pre-infected with parasite followed by compound addition and measured at 1 to 5 days post-infection by microscopic analysis; assay type: functional, organism-based; settings: time 1-5 day
# [8] = Selectivity index, ratio of CC50 for mouse L929 cells to IC50 for antiparasitic activity against trypomastigote and amastigote form of Trypanosoma cruzi Tulahuen expressing Escherichia coli beta-galactosidase infected in mouse L929 cells; assay type: toxicity; settings: read-out: Selectivity Index
# Trypanosoma cruzi [9] = experiment: Antiparasitic activity against trypomastigote form of Trypanosoma cruzi Y assessed as appearance of twisted bodies by Electron micrographic analysis; assay type: functional, organism-based
# Trypanosoma cruzi [10] = experiment: Antiparasitic activity against trypomastigote form of Trypanosoma cruzi Y assessed as appearance of membrane rupture by Electron micrographic analysis; assay type: functional, organism-based
# Trypanosoma cruzi [11] = experiment: Antiparasitic activity against trypomastigote form of Trypanosoma cruzi Y assessed as appearance of filamentous structures scattered across the membrane by Electron micrographic analysis; assay type: functional, organism-based
# Cell membrane = experiment: Induction of cell membrane damage in trypomastigote form of Trypanosoma cruzi Y assessed as decrease in red fluorescence intensity incubated for 24 hrs by acridine orange staining based flow cytometric analysis; assay type: subcellular
# [12] = Selectivity index, ratio of CC50 for mouse RAW264.7 cells to IC50 for antiparasitic activity against Leishmania infantum amastigote expressing Escherichia coli beta-galactosidase infected in mouse RAW264.7 cells; assay type: toxicity; settings: read-out: Selectivity Index
# [13] = Acute toxicity in male Swiss-Webster mouse infected with Trypanosoma cruzi Y assessed as mortality at 5 to 200 mg/kg, po measured after 48 hrs; assay type: organism-based; settings: in vivo, dose 5-200 mg/kg
# [14] = Acute toxicity in female Swiss-Webster mouse infected with Trypanosoma cruzi Y assessed as side effects at 5 to 200 mg/kg, po measured after 48 hrs; assay type: organism-based; settings: in vivo, dose 5-200 mg/kg
# [15] = Acute toxicity in male Swiss-Webster mouse infected with Trypanosoma cruzi Y assessed as side effects at 5 to 200 mg/kg, po measured after 48 hrs; assay type: organism-based; settings: in vivo, dose 5-200 mg/kg
# [16] = Acute toxicity in female Swiss-Webster mouse infected with Trypanosoma cruzi Y assessed as mortality at 5 to 200 mg/kg, po measured after 48 hrs; assay type: organism-based; settings: in vivo, dose 5-200 mg/kg
# Trypanosoma cruzi [17] = experiment: Antiparasitic activity against trypomastigote form of Trypanosoma cruzi Y assessed as appearance of swollen cells with cytoplasmic content leakage by Electron micrographic analysis; assay type: functional, organism-based
# RAW264.7 [18] = experiment: Immunomodulatory activity in mouse RAW264.7 cells assessed as decrease in TNF production at 1 to 4 times IC50 incubated for 24 to 144 hrs by flow cytometric analysis; assay type: functional, cell-based; settings: time 24-144 hrs
# Trypanosoma cruzi [19] = experiment: Antitrypanosomal activity against trypomastigote form of Trypanosoma cruzi Y assessed as induction of apoptosis at 2 times IC50 by measuring late apoptotic cells incubated for 24 hrs by Annexin V-FITC/7-AAD staining based flow cytometric analysis relative to control; assay type: functional
# Trypanosoma cruzi [20] = experiment: Antitrypanosomal activity against trypomastigote form of Trypanosoma cruzi Y assessed as induction of apoptosis at 1 times IC50 by measuring early apoptosis incubated for 24 hrs by Annexin V-FITC/7-AAD staining based flow cytometric analysis relative to control; assay type: functional
# Leishmania infantum [21] = experiment: Antiparasitic activity against Leishmania infantum MHOM/MA/67/ITMAP-263 promastigote expressing Escherichia coli beta-galactosidase assessed as reduction in parasitic growth using CPRG as substrate preincubated with compound for 72 hrs followed by substrate addition and measured after 10 mins by Spectrophotometric analysis; assay type: functional, organism-based
# Leishmania infantum [22] = experiment: Antiparasitic activity against Leishmania infantum amastigote expressing Escherichia coli beta-galactosidase infected in mouse RAW264.7 cells assessed as reduction in parasitic growth using CPRG as substrate preincubated with compound for 24 hrs followed by substrate addition and measured after 2 to 6 hrs by Spectrophotometric analysis; assay type: functional, organism-based; settings: Leishmania infantum, RAW264.7; read-out: IC50
# RAW264.7 [23] = experiment: Immunomodulatory activity in mouse RAW264.7 cells assessed as nitric oxide formation at 1 to 4 times IC50 incubated for 72 hrs by Griess reagent based Spectrophotometric analysis; assay type: functional, cell-based
# Trypanosoma cruzi [24] = experiment: Antitrypanosomal activity against trypomastigote form of Trypanosoma cruzi Y assessed as induction of apoptosis at 2 times IC50 by measuring early apoptosis incubated for 24 hrs by Annexin V-FITC/7-AAD staining based flow cytometric analysis relative to control; assay type: functional
# Trypanosoma cruzi [25] = experiment: Antiparasitic activity against trypomastigote form of Trypanosoma cruzi Y assessed as appearance of ruptured cells with cytoplasmic content leakage by Electron micrographic analysis; assay type: functional, organism-based
# Leishmania amazonensis [26] = experiment: Antiparasitic activity against Leishmania amazonensis amastigote expressing Escherichia coli beta-galactosidase infected in mouse RAW264.7 cells assessed as reduction in parasitic growth using CPRG as substrate preincubated with compound for 24 hrs followed by substrate addition and measured after 2 to 6 hrs by Spectrophotometric analysis; assay type: functional, organism-based
# Mitochondrial membrane = experiment: Induction of mitochondrial membrane hyperpolarization in trypomastigote form of Trypanosoma cruzi Y at IC50 incubated for 24 hrs by Rhodamine 123 staining based flow cytometric analysis; assay type: cell membranes
# [27] = Cytotoxicity against mouse RAW264.7 cells assessed as inhibition of cell viability incubated for 48 hrs by MTT assay; assay type: toxicity, cell-based
# Trypanosoma cruzi [28] = experiment: Antitrypanosomal activity against trypomastigote form of Trypanosoma cruzi Y assessed as induction of apoptosis at 2 times IC50 by measuring necrotic cells incubated for 24 hrs by Annexin V-FITC/7-AAD staining based flow cytometric analysis relative to control; assay type: functional
# Trypanosoma cruzi [29] = experiment: Antiparasitic activity against trypomastigote form of Trypanosoma cruzi Y assessed as presence of bubbles by Electron micrographic analysis; assay type: functional, organism-based
# Leishmania amazonensis [30] = experiment: Antiparasitic activity against Leishmania amazonensis WHOM/00 LTB 0016 promastigote expressing Escherichia coli beta-galactosidase assessed as reduction in parasitic growth using CPRG as substrate preincubated with compound for 72 hrs followed by substrate addition and measured after 10 mins by Spectrophotometric analysis; assay type: functional, organism-based
# [31] = Selectivity index, ratio of CC50 for mouse RAW264.7 cells to IC50 for antiparasitic activity against Leishmania amazonensis amastigote expressing Escherichia coli beta-galactosidase infected in mouse RAW264.7 cells; assay type: toxicity; settings: read-out: Selectivity Index
# [32] = Selectivity index, ratio of CC50 for mouse RAW264.7 cells to IC50 for antiparasitic activity against Leishmania infantum MHOM/MA/67/ITMAP-263 promastigote expressing Escherichia coli beta-galactosidase; assay type: toxicity; settings: read-out: Selectivity Index
# [33] = Selectivity index, ratio of CC50 for mouse RAW264.7 cells to IC50 for antiparasitic activity against Leishmania amazonensis WHOM/00 LTB 0016 promastigote expressing Escherichia coli beta-galactosidase; assay type: toxicity; settings: read-out: Selectivity Index
Compound,Activity (RAW264.7 [1]),IC50 (Trypanosoma cruzi [2]) [µM],CC50 at 96 h [4] [µM],Activity (RAW264.7 [5]),IC50 (Trypanosoma cruzi [6]) [µM],Activity (Trypanosoma cruzi [7]),selectivity ratio [8],Activity (Trypanosoma cruzi [9]),Activity (Trypanosoma cruzi [11]),Activity (Cell membrane),selectivity ratio [12],Activity [13],Activity [14],Activity [15],Activity [16],Activity (Trypanosoma cruzi [17]),Activity (RAW264.7 [18]),Activity (Trypanosoma cruzi [19]) [%],Activity [3],Activity (Trypanosoma cruzi [20]) [%],also measured
O=C(Cn1ccnc1[N+](=O)[O-])NCc1ccccc1 [BENZNIDAZOLE],Active,4.2,2070,Active,4.2,Active,494,Active,,,,,,,,,,,,,"mortality ([3]; male, Swiss, read-out: Activity): 100%; Activity (Trypanosoma cruzi [10]): Active"
C/C(=N\Nc1nc(-c2cccc([N+](=O)[O-])c2)cs1)c1cccnc1,Active,0.4,114,Active,0.4,inactive,284,,Dose-dependent-effect,Dose-dependent-effect,0.4,Non-toxic,Non-toxic,Non-toxic,Non-toxic,Dose-dependent-effect,inactive,9.39,Toxic,29.2,IC50 (Leishmania infantum [21]): Not_active; IC50 (Leishmania infantum [22]): 93.8 µM; Activity (RAW264.7 [23]): Active; Activity (Trypanosoma cruzi [24]): 7.55%; Activity (Trypanosoma cruzi [25]): Dose-dependent-effect; IC50 (Leishmania amazonensis [26]; raw264.7): Not_active; Activity (Mitochondrial membrane): Active; CC50 at 48 h [27]: 35.3 µM; Activity (Trypanosoma cruzi [28]): 2.31%; Activity (Trypanosoma cruzi [29]): Dose-dependent-effect; IC50 (Leishmania amazonensis [30]): Not_active
C/C(=N\N=c1\scc(-c2ccccc2)n1C)c1cccnc1,Active,0.3,3.5,Active,0.3,inactive,11.7,Dose-dependent-effect,Dose-dependent-effect,Dose-dependent-effect,0.7,Non-toxic,Non-toxic,Non-toxic,Non-toxic,Dose-dependent-effect,Active,3.04,Toxic,29.4,"selectivity ratio [31]: 0.6; IC50 (Leishmania infantum [21]; Leishmania infantum, MHOM/MA/67/ITMAP-263, read-out: IC50): 5.2 µM; IC50 (Leishmania infantum [22]): 8.4 µM; Activity (RAW264.7 [23]): Active; Activity (Trypanosoma cruzi [24]): 61.6%; Activity (Trypanosoma cruzi [25]): Dose-dependent-effect; IC50 (Leishmania amazonensis [26]; Leishmania amazonensis, RAW264.7, read-out: IC50): 9.4 µM; Activity (Mitochondrial membrane): Active; selectivity ratio [32]: 1.1; CC50 at 48 h [27]: 5.5 µM; Activity (Trypanosoma cruzi [28]): 2.36%; Activity (Trypanosoma cruzi [29]): Dose-dependent-effect; IC50 (Leishmania amazonensis [30]; Leishmania amazonensis, WHOM/00 LTB 0016, read-out: IC50): 7.1 µM; selectivity ratio [33]: 0.8"
